# Publication PMC5116089, “Sulfheme formation during homocysteine S-oxygenation by catalase in cancers and neurodegenerative diseases” (Nature Communications, 2016)
# Target: T1, immunocaptured catalase (Homo sapiens, UniProt P04040)
# T1 construct: Endogenous catalase activity in cell lysates; endogenous in cells; host or cells: human colorectal cancer cell lines; BE2-M17 human neuroblastoma cells (with or without rotenone)
# T1 sequence (P04040 2-527 limits assumed): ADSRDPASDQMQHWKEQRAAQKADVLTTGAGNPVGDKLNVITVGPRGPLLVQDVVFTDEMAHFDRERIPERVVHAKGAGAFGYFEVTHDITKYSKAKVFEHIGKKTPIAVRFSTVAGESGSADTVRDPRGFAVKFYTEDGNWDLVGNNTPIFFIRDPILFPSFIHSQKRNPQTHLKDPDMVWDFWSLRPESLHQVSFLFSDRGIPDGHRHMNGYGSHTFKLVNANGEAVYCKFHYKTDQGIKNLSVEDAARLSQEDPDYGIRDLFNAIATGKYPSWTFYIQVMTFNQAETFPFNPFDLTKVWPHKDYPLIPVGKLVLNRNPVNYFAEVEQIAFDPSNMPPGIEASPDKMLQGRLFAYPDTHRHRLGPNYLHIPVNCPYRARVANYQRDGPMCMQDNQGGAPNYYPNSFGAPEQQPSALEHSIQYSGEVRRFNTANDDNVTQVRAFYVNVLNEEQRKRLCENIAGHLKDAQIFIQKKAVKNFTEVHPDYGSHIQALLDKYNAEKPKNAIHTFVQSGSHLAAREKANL
# Assay: Relative specific activity of immunocaptured catalase (SpCAT) after incubation with NaSH
# Format: biochemical
# Settings: for effect of NaSH on SpCAT: NaSH 0–50 μM
# Experimental: The relative specific activity (activity and quantity) of catalase in the cell lysates was determined using the kit ab118184 from Abcam (Cambridge, MA). The measurements were performed in duplicate as per the manufacturer's protocol. Briefly, catalase in cell lysates (0.1–0.2 mg cell lysates per assay) was immunocaptured within the wells of the microplate. An assay buffer, which contains H2O2 that reacts with a substrate to generate a luminescent product, was added to each well. The presence of catalase in the reaction mixture reduces the production of light and the light produced in each well is thus inversely proportional to the amount of catalase activity. Then, the quantity of catalase was measured by adding to each well an anti-catalase primary detector antibody. After 1 h incubation at RT, the unbound detector antibody was washed away and an HRP-conjugated labelled secondary antibody specific for the primary detector antibody was added to the wells. After 1 h incubation, the wells were again washed and a 3,3′,5,5′-Tetramethylbenzidine (TMB) substrate solution was added to the wells. A blue colour (absorbance at 600 nm) developed in proportion to the amount of catalase bound. Luminescence and absorbance measurements were performed on an EnSpire Multilabel Reader 2300 (PerkinElmer). To check the effect of NaSH on the relative specific activity of catalase, the immunocaptured catalase was incubated with various concentrations of NaSH (0–50 μM) for 5 min at RT before carefully washing twice each well. The protocol above was then followed to determine activity measurement and catalase quantification.
structure (smiles),measurement,setting,value
[Na+].[SH-] [NaSH],response of SpCAT towards NaSH,BE2-M17 cells versus rotenone-treated BE2-M17 cells,similar
same,effect of NaSH on SpCAT,HCT-15 cancer cells,inhibited
same,effect of NaSH on SpCAT,HCT-116 cancer cells,almost unaffected
same,effect of NaSH on SpCAT,HT-29 Glc−/+ control cell line,almost unaffected
same,effect of NaSH on SpCAT,MDST8 cancer cells,activated
